The values that follow are results of earlier work, collected in US11278622B2, “Ceftolozane antibiotic compositions” (Merck Sharp & Dohme Corp., priority 2013, dated 2022).

Where only a bound is given, the exact number is not on record here.

For this series, the system named is P. aeruginosa.

The MIC90 is an inhibitory concentration at the 90% level, which refers to growth in some studies and to a panel of isolates in others. As for `Cn1c(N)c(NC(=O)NCCN)c[n+]1CC1=C(C(=O)O)N2C(=O)[C@@H](NC(=O)/C(=N\OC(C)(C)C(=O)O)c3nsc(N)n3)[C@H]2SC1` [ceftolozane, (6R,7R)-3-[(5-amino-4-{[(2-aminoethyl)carbamoyl]amino}-1-methyl-1H-pyrazol-2-ium-2-yl)methyl]-7-({(2Z)-2-(5-amino-1,2,4-thiadiazol-3-yl)-2-[(1-carboxy-1-methylethoxy)imino]acetyl}amino)-8-oxo-5-thia-1-azabicyclo[4.2.0]oct-2-ene-2-carboxylate], the MIC90 is not above 2 µg/mL.
